Experimental data reported in US20210069173A1, “PREPARATION OF (-)-COCAINE HYDROCHLORIDE” (Cody Laboratories, Inc., priority 2018, published 2021).
Where a name gives a salt, the structure may show the parent alone.

Columns and labels:
[1] = Distribution, metabolism and excretion of cocaine
[2] = cited from earlier work
[3] = system: mice; conditions: cited from earlier work
[4] = system: mucous membranes; assay: Topical anesthesia of mucous membranes by pledget administration; format: in vivo, human; conditions: applied to mucous membranes by pledget, depends on concentration, vascularity
Protocol: When applied to mucous membranes by pledget administration, topical anesthesia develops rapidly and persists for 30 minutes or longer depending on the concentration of cocaine HCl solution used, the dose, and on the vascularity of the tissue.

[5] = system: experimental animals; conditions: cited from earlier work

COC(=O)[C@H]1[C@@H](OC(=O)c2ccccc2)C[C@@H]2CC[C@H]1N2C [Cocaine, methyl (1R,2R,3S,5S)-3-(benzoyloxy)-8-methyl-8-azabicyclo[3.2.1]octane-2-carboxylate]
fraction eliminated unchanged in the urine ([1]; human, urine): < 5%
metabolism by hydrolysis to ecgonine ([2]; by carboxylesterase-2): minimally metabolized
fraction metabolized by hydrolysis to benzoylecgonine ([2]; by hepatic carboxylesterase-1): 40-45%
fraction metabolized by hydrolysis to ecgonine methyl ester ([2]; by plasma butyrylcholinesterase and hepatic carboxylesterase-2): 40-45%
fraction N-demethylated to norcocaine ([2]; by the CYP3A4 enzyme system): 5-10%
volume of distribution ([2]; in vivo): approximately 2 L/kg
potency in producing increases in locomotor activity ([3]; cocaine versus cocaethylene): more potent than cocaethylene

COC(=O)[C@H]1[C@@H](OC(=O)c2ccccc2)C[C@@H]2CC[C@H]1N2C [cocaine HCl, methyl (1R,2R,3S,5S)-3-(benzoyloxy)-8-methyl-8-azabicyclo[3.2.1]octane-2-carboxylate hydrochloride]
persistence of topical anesthesia [4]: ≥ 30 min

CCOC(=O)[C@H]1[C@@H](OC(=O)c2ccccc2)C[C@@H]2CC[C@H]1N2C [ethyl cocaine, ethyl (1R,2R,3S,5S)-3-(benzoyloxy)-8-methyl-8-azabicyclo[3.2.1]octane-2-carboxylate]
elimination half-life (comparative) [5]: longer elimination half-life
volume of distribution (comparative) [5]: larger volume of distribution
toxicity and arrhythmogenicity ([5]; versus cocaine or ethanol alone): more toxic and arrhythmogenic than either substance alone
potency in producing convulsions ([3]; cocaine versus cocaethylene): equipotent
potency in producing lethality ([3]; ethyl cocaine versus cocaine): more potent than cocaine

COC(=O)[C@H]1[C@@H](OC(=O)c2ccccc2)C[C@@H]2CC[C@H]1N2 [norcocaine]
total systemic exposure relative to cocaine ([1]; in vivo): less than one percent
